In article PMC7932537, “Quantitative profiling of protease specificity” (PLoS Computational Biology, 2021):

Key:
MMP-2 [1] = molecular target: T1, MMP-2 (Homo sapiens, UniProt P08253); experiment: kcat/KM of synthetic peptides derived from substrate phage selections; type: biochemical; conditions: synthetic hexamer peptides; recombinant MMP-2 catalytic domain, APMA-activated; determined in triplicate as described in ref 27
T1 construct: The recombinant catalytic domains of MMP-2 and -9 were expressed in HEK293 cells; made in house; host or cells: HEK293 cells, stably transfected; purified from serum-free medium on Gelatin Sepharose 4B
Text: (§1) K(obs) obtained for each of the 1369 substrates has a range of 0 and 12,792 (M^-1 s^-1) due to the experimental conditions used in the study. So, all substrates with the true K(obs) above this value will nevertheless have a K(obs) equal to the preset maximum. With this limitation in mind, we corroborated the results using synthetic peptides, thereby extending the correlation to the entire range of kcat/KM values for each MMP. We performed a correlation analysis using a set of 100 peptides with sequences derived from substrate phage selections and their kcat/KM values were experimentally determined as described in [27] (S8 Table).
(§2) The recombinant catalytic domains of MMP-2 and -9 were expressed in HEK293 cells stably transfected with respective constructs and purified from serum-free culture medium using Gelatin Sepharose 4B (GE Healthcare) as described in [29, 35]. Following activation with APMA (Sigma-Aldrich), the amount of active enzyme was determined by active site titration using GM6001 (Sigma-Aldrich). The kcat/KM values of 100 peptides derived from phage substrates […] were determined in triplicate as described in [27].
(§3) Supplementary file pcbi.1008101.s010.xlsx: S8 Table Table of 100 peptide set derived from substrate phage selections of MMP-2 and 9, for which kcat/KM values were experimentally determined. […]

MMP-2 [2] = experiment: Substrate phage display with NGS: relative probability (RP) of P3-P1' tetramer clusters; type: biochemical, human; conditions: for relative probability (RP) (acc.to MMP2): RP of matching tetramer of the cleavage site, unique part of MMP9 selectome
MMP-9 [3] = molecular target: MMP-9 (Homo sapiens, UniProt P14780); experiment: kcat/KM of synthetic peptides derived from substrate phage selections; type: biochemical; set-up: The recombinant catalytic domains of MMP-2 and -9 were expressed in HEK293 cells; made in house; host or cells: HEK293 cells, stably transfected; purified from serum-free medium on Gelatin Sepharose 4B; conditions: MMP9; 100 set of synthetic hexamer peptide substrates; mean, SD and SEM in columns of their own
Text: as §1, §2, §3

MMP-9 [4] = experiment: Substrate phage display with NGS: relative probability (RP) of P3-P1' tetramer clusters; type: biochemical, human; conditions: for relative probability (RP) (acc.to MMP9): RP of matching tetramer of the cleavage site, unique part of MMP9 selectome
MMP-9 [5] = experiment: N-terminomic (TMT) analysis of MMP-treated HEK293 secretome: isotopic enrichment of novel N-termini; type: biochemical, human; conditions: for isotopic enrichment (log2(ratio)) (acc.to MMP9): HEK293 secretome, 750 nM MMP-9, 2 h, 37 C, TMT reporter ratio vs untreated control, LC-MS/MS, duplicate; for isotopic enrichment (log2(ratio)): MMP9 cleavages in HEK293 cell proteins, determined by LC-MS/MS, log2(ratio) range (>3σ, 2σ-3σ, 1σ-2σ)
MMP-2 [6] = experiment: as above; type: biochemical, human; conditions: HEK293 secretome, 750 nM MMP-2, 2 h, 37 C; TMT reporter ratio vs untreated control, LC-MS/MS, duplicate

Chain of MMP-9 (Homo sapiens, UniProt P14780) (P14780 94-444 limits assumed): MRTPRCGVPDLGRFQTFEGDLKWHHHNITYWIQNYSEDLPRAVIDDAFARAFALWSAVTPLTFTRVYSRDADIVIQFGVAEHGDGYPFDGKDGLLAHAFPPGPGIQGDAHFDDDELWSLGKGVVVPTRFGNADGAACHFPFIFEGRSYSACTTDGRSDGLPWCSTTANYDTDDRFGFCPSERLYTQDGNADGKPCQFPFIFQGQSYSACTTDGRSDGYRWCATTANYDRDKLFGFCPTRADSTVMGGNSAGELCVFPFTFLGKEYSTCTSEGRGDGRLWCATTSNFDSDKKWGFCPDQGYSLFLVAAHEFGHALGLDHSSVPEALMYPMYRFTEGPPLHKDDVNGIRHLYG
T1 sequence (P08253 110-446 limits assumed): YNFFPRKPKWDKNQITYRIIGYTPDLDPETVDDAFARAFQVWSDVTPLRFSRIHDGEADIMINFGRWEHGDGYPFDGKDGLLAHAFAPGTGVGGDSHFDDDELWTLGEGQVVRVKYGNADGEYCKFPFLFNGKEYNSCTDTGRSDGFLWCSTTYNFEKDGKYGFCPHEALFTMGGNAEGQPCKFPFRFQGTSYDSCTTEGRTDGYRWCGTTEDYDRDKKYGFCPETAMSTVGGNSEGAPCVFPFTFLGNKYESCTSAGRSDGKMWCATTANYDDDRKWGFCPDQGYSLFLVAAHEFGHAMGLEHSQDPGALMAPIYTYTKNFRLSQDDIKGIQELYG

Substance | kcat/Km (MMP-2 [1]) | relative probability (RP) (MMP-2 [2]; RP of the P3-P1' tetramer cluster contained in the hexamer, 200 nM MMP-2, 2 h, 37°C, two rounds of selection) | kcat/Km (MMP-9 [3]) | relative probability (RP) (MMP-9 [4]; MMP9, RP of the P3-P1' tetramer contained in the hexamer substrate (substrate phage display, NGS)) | isotopic enrichment (log2(ratio)) (acc.to MMP9) (MMP-9 [5]) | isotopic enrichment (log2(ratio)) (MMP-9 [5]) | isotopic enrichment (log2(ratio)) (acc.to MMP2) (MMP-2 [6]) | relative probability (RP) (acc.to MMP2) (MMP-2 [2]) | relative probability (RP) (acc.to MMP9) (MMP-9 [4])
DRKPKA | 0 M⁻¹ s⁻¹ | 0.3523 | 0 M⁻¹ s⁻¹ | 1.5839 | – | – | – | – | –
NHIRY-VISQGN [MS detected cleavage site in Fibrillin-2 (P35556)] | – | – | – | – | 3.134 log2(ratio) | 3.134 | 1.367 log2(ratio) | 0.96 | 10.4
GKPFK-IQVLVE [MS detected cleavage site in Galectin-3 (P17931)] | – | – | – | – | 1.459 log2(ratio) | 1.459 | 0.7991 log2(ratio) | 1.13 | 34.84
KHIYY-ITGETK [MS detected cleavage site in Heat shock protein HSP 90-alpha (P07900)] | – | – | – | – | 3.338 log2(ratio) | 3.338 | 0.7225 log2(ratio) | 0.69 | 14.54
VVPWP-HVEGVE [MS detected cleavage site in N-acetylgalactosaminyltransferase 7 (Q86SF2)] | – | – | – | – | 3.516 log2(ratio) | 3.516 | 1.195 log2(ratio) | 0 | 15.08
KPPRL-VGGPMD [MS detected cleavage site in Cystatin-C (P01034)] | – | – | – | – | 1.9855 log2(ratio) | 1.9855 | 0.8156 log2(ratio) | 0.07 | 7.12
DSTMN-MLGGGG | – | – | – | – | 1.618 log2(ratio) | 1.618 | 0.8797 log2(ratio) | 0 | 6.67
QQPFA-SVMTDE [MS detected cleavage site in Semaphorin-3D (O95025)] | – | – | – | – | 2.583 log2(ratio) | 2.583 | 0.2016 log2(ratio) | 3.01 | 24.05
